Source: patent publication US12227496B2 (BRISTOL-MYERS SQUIBB COMPANY, priority 2019, dated 2025)

Biological target: T1, human FXR (Homo sapiens, UniProt Q96RI1)
T1 construct: expressed in transfected cells; host or cells: HEK293 cells stably carrying a 5xGal4-response-element firefly luciferase reporter, transiently transfected with pcDNA3.1-Gal4-FXR
T1 sequence (Q96RI1 262-486 limits assumed): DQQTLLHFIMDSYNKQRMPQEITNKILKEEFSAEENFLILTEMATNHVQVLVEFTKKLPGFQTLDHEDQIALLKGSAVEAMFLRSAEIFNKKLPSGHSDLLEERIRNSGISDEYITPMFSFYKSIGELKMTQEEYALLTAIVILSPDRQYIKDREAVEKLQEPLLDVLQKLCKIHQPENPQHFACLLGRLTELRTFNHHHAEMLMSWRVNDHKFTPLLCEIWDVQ
Experiment: transient human FXR/Gal4-luciferase reporter assay
Format: cell-based
Details: Gal4-hFXR LBD fusion, luciferase reporter in HEK293 cells; response relative to 8 μM GW-4064
Procedure: A Gal4-hFXR fusion construct reporter system was used as the primary assay to characterize compound activity. A construct including 5 copies of the Gal4 promoter response element upstream of a firefly luciferase reporter cDNA was stably expressed in HEK293 cells. This reporter cell line was maintained in Dulbecco's Modified Eagle's medium (DMEM; Gibco) supplemented with 1% penicillin-streptomycin (P/S) solution, 500 μg/mL Zeocin and 10% charcoal/dextran-treated fetal bovine serum (cs-FBS) at 37° C. in a humidified 5% CO2 atmosphere. […] The day prior to transfection, the reporter cells in culture are detached from the plate with trypsin and plated into a T75 flask at a sufficient density to achieve approximately 90% confluence the next morning. […] The mixture is further diluted with 10 mL of a solution comprised of DMEM, 10% cs-FBS, and 1% P/S immediately prior to transferring to the cells. The maintenance culture media is aspirated from the cells and the final transfection mixture is added before the cells are incubated overnight at 37° C. in a humidified 5% CO2 atmosphere. This protocol can be scaled up, and the transiently transfected cells can be cryopreserved in an assay-ready format. For compound testing, 100 nL of the compounds (serial dilutions in DMSO) are dispensed with an Echo acoustic dispenser (Labcyte) into the wells of a Corning/Costar clear bottom 384-well white plate. The transfected cells are harvested, counted, and diluted such that 10-25,000 cells in 25 μL are plated into each well of the 384-well compound assay plate. The compound-treated cells are incubated overnight at 37° C. in a humidified 5% CO2 atmosphere. The next morning 25 μL of Steady-Glo (Promega) are added to each well of the plate, the mixture is incubated for 15 min. with shaking, and luminescence is measured on an Envision (Perkin Elmer) plate reader.

Row | SMILES | EC50
1 | CCn1cc(-c2cccc(N(CC34CCC(c5nc(C6CC6)no5)(CC3)CC4)C(=O)C3CCCOC3)c2)oc1=O (racemic) [Example 52, N-((4-(3-cyclopropyl-1,2,4-oxadiazol-5-yl)bicyclo[2.2.2]octan-1-yl)methyl)-N-(3-(3-ethyl-2-oxo-2,3-dihydrooxazol-5-yl)phenyl)tetrahydro-2H-pyran-3-carboxamide] | 1.33 µM
2 | O=C(C1CCC(F)(F)CC1)N(CC12CCC(c3nc(CC4CC4)no3)(CC1)CC2)c1cccc(-c2nc(C3CC3)no2)c1 [Example 46, N-(3-(3-cyclopropyl-1,2,4-oxadiazol-5-yl)phenyl)-N-((4-(3-(cyclopropylmethyl)-1,2,4-oxadiazol-5-yl)bicyclo[2.2.2]octan-1-yl)methyl)-4,4-difluorocyclohexane-1-carboxamide] | 0.633 µM
3 | COCc1nc(-c2cccc(N(CC34CCC(c5nc(C6CC6)no5)(CC3)CC4)C(=O)C3CCN(C(=O)OC(C)(C)C)CC3)c2)cs1 [Example 48, tert-butyl 4-(((4-(3-cyclopropyl-1,2,4-oxadiazol-5-yl)bicyclo[2.2.2]octan-1-yl)methyl)(3-(2-(methoxymethyl)thiazol-4-yl)phenyl)carbamoyl)piperidine-1-carboxylate] | 0.856 µM
4 | O=C(C1CCCCC1)N(CC12CCC(c3nc(C4CC4)no3)(CC1)CC2)c1cccc(-c2cnc(C3CC3)o2)c1 [Example 22, N-((4-(3-cyclopropyl-1,2,4-oxadiazol-5-yl)bicyclo[2.2.2]octan-1-yl)methyl)-N-(3-(2-cyclopropyloxazol-5-yl)phenyl)cyclohexanecarboxamide] | 0.037 µM
5 | CN1CCN(C(=O)N(CC23CCC(c4nc(C5CC5)no4)(CC2)CC3)c2cccc(-c3nc(C4CC4)no3)c2)CC1 [Example 59, N-((4-(3-cyclopropyl-1,2,4-oxadiazol-5-yl)bicyclo[2.2.2]octan-1-yl)methyl)-N-(3-(3-cyclopropyl-1,2,4-oxadiazol-5-yl)phenyl)-4-methylpiperazine-1-carboxamide] | 1.38 µM
6 | O=C(C1CCC(F)(F)CC1)N(CC12CCC(c3nc(C4CC4)no3)(CC1)CC2)c1cccc(-c2cc(C3CC3)no2)c1 [Example 151, N-((4-(3-cyclopropyl-1,2,4-oxadiazol-5-yl)bicyclo[2.2.2]octan-1-yl)methyl)-N-(3-(3-cyclopropylisoxazol-5-yl)phenyl)-4,4-difluorocyclohexane-1-carboxamide] | 0.038 µM
7 | CCCc1ncc(-c2cccc(N(CC34CCC(c5nc(C6CC6)no5)(CC3)CC4)C(=O)C3CCOCC3)c2)o1 [Example 29, N-((4-(3-cyclopropyl-1,2,4-oxadiazol-5-yl)bicyclo[2.2.2]octan-1-yl)methyl)-N-(3-(2-propyloxazol-5-yl)phenyl)tetrahydro-2H-pyran-4-carboxamide] | 0.053 µM
8 | COc1cc(-c2cccc(N(CC34CCC(c5nc(C6CC6)no5)(CC3)CC4)C(=O)C3CCOCC3)c2)ccn1 [Example 83, N-((4-(3-cyclopropyl-1,2,4-oxadiazol-5-yl)bicyclo[2.2.2]octan-1-yl)methyl)-N-(3-(2-methoxypyridin-4-yl)phenyl)tetrahydro-2H-pyran-4-carboxamide] | 0.303 µM
9 | Cc1noc(C23CCC(CN(C(=O)C4CCCCC4)c4cccc(-c5cnc(C6CCOCC6)o5)c4)(CC2)CC3)n1 [Example 33, N-((4-(3-methyl-1,2,4-oxadiazol-5-yl)bicyclo[2.2.2]octan-1-yl)methyl)-N-(3-(2-(tetrahydro-2H-pyran-4-yl)oxazol-5-yl)phenyl)cyclohexanecarboxamide] | 0.949 µM
10 | CCOC(=O)c1coc(-c2cccc(N(CC34CCC(c5nc(C)no5)(CC3)CC4)C(=O)C3CCCCC3)c2)n1 [Example 19, Ethyl 2-(3-(N-((4-(3-methyl-1,2,4-oxadiazol-5-yl)bicyclo[2.2.2]octan-1-yl)methyl)cyclohexanecarboxamido)phenyl)oxazole-4-carboxylate] | 1.56 µM
11 | O=C(N1CCCC(CO)C1)N(CC12CCC(c3nc(C4CC4)no3)(CC1)CC2)c1cccc(-c2nc(C3CC3)no2)c1 (racemic) [Example 65, N-((4-(3-cyclopropyl-1,2,4-oxadiazol-5-yl)bicyclo[2.2.2]octan-1-yl)methyl)-N-(3-(3-cyclopropyl-1,2,4-oxadiazol-5-yl)phenyl)-3-(hydroxymethyl)piperidine-1-carboxamide] | 0.74 µM
12 | CC(F)(F)c1nc(C23CCC(CN(C(=O)C4CCC(F)(F)CC4)c4cccc(-c5nc(C6CC6)no5)c4)(CC2)CC3)no1 [Example 112, N-(3-(3-cyclopropyl-1,2,4-oxadiazol-5-yl)phenyl)-N-((4-(5-(1,1-difluoroethyl)-1,2,4-oxadiazol-3-yl)bicyclo[2.2.2]octan-1-yl)methyl)-4,4-difluorocyclohexane-1-carboxamide] | 0.142 µM
13 | COc1cc(-c2cccc(N(CC34CCC(c5nnc(C)s5)(CC3)CC4)C(=O)C3CCC(F)(F)CC3)c2)ccn1 [Example 82, 4,4-difluoro-N-(3-(2-methoxypyridin-4-yl)phenyl)-N-((4-(5-methyl-1,3,4-thiadiazol-2-yl)bicyclo[2.2.2]octan-1-yl)methyl)cyclohexane-1-carboxamide] | 4.76 µM
14 | CC(F)(F)c1nc(C23CCC(CN(C(=O)C4CCOCC4)c4ccc(F)c(-c5ccc(P(C)(C)=O)cc5)c4)(CC2)CC3)no1 [Example 122, N-((4-(5-(1,1-difluoroethyl)-1,2,4-oxadiazol-3-yl)bicyclo[2.2.2]octan-1-yl)methyl)-N-(4′-(dimethylphosphoryl)-6-fluoro-[1,1′-biphenyl]-3-yl)tetrahydro-2H-pyran-4-carboxamide] | 1.32 µM
15 | CCOc1ccc(-c2cccc(N(CC34CCC(c5nc(C(C)(C)C)no5)(CC3)CC4)C(=O)C3CCC(OC)CC3)c2)cc1 (single isomer, unassigned) [Example 145, N-((4-(3-(tert-butyl)-1,2,4-oxadiazol-5-yl)bicyclo[2.2.2]octan-1-yl)methyl)-N-(4′-ethoxy-[1,1′-biphenyl]-3-yl)-4-methoxycyclohexane-1-carboxamide] | 0.303 µM
16 | O=C(N1CCOCC1)N(CC12CCC(c3nc(C4CC4)no3)(CC1)CC2)c1cccc(-c2nc(C3CC3)no2)c1 [Example 56, N-((4-(3-cyclopropyl-1,2,4-oxadiazol-5-yl)bicyclo[2.2.2]octan-1-yl)methyl)-N-(3-(3-cyclopropyl-1,2,4-oxadiazol-5-yl)phenyl)morpholine-4-carboxamide] | 0.739 µM
17 | CN1CCC(C(=O)N(CC23CCC(c4cc(C5CC5)nn4C)(CC2)CC3)c2cccc(-c3cc(C4CC4)on3)c2)CC1 [Example 133, N-((4-(3-cyclopropyl-1-methyl-1H-pyrazol-5-yl)bicyclo[2.2.2]octan-1-yl)methyl)-N-(3-(5-cyclopropylisoxazol-3-yl)phenyl)-1-methylpiperidine-4-carboxamide] | 2 µM
18 | O=C(C1CCOCC1)N(CC12CCC(c3nc(C4CC4)no3)(CC1)CC2)c1cccc(-c2nc(CC3CC3)no2)c1 [Example 44, N-((4-(3-cyclopropyl-1,2,4-oxadiazol-5-yl)bicyclo[2.2.2]octan-1-yl)methyl)-N-(3-(3-(cyclopropylmethyl)-1,2,4-oxadiazol-5-yl)phenyl)tetrahydro-2H-pyran-4-carboxamide] | 0.118 µM
19 | CCc1noc(-c2cccc(N(CC34CCC(c5nc(C6CC6)no5)(CC3)CC4)C(=O)C3CCC(F)(F)CC3)c2)n1 [Example 5, N-((4-(3-cyclopropyl-1,2,4-oxadiazol-5-yl)bicyclo[2.2.2]octan-1-yl)methyl)-N-(3-(3-ethyl-1,2,4-oxadiazol-5-yl)phenyl)-4,4-difluorocyclohexane-1-carboxamide] | 0.799 µM
20 | CC(F)(F)c1nc(C23CCC(CN(C(=O)C4CCC(O)(C(F)(F)F)CC4)c4cccc(-c5cc(C6CC6)on5)c4)(CC2)CC3)no1 (stereo not drawn) [Example 158, N-(3-(5-cyclopropylisoxazol-3-yl)phenyl)-N-((4-(5-(1,1-difluoroethyl)-1,2,4-oxadiazol-3-yl)bicyclo[2.2.2]octan-1-yl)methyl)-4-hydroxy-4-(trifluoromethyl)cyclohexane-1-carboxamide] | 0.195 µM
21 | COc1cc(-c2cccc(N(CC34CCC(c5nc(C)no5)(CC3)CC4)C(=O)C3CCCCC3)c2)ccn1 [Example 73, N-(3-(2-methoxypyridin-4-yl)phenyl)-N-((4-(3-methyl-1,2,4-oxadiazol-5-yl)bicyclo[2.2.2]octan-1-yl)methyl)cyclohexane carboxamide] | 0.517 µM
